Assays:
EGFR tyrosine kinase = target: T1, EGFR tyrosine kinase (Homo sapiens, UniProt P00533); experiment: Test (a) protein tyrosine kinase phosphorylation assay, EGFR; type: biochemical; conditions: ATP at Km concentration; read-out: IC50 Test (a): Inhibition of EGFR tyrosine kinase protein phosphorylation
T1 construct: Recombinant intracellular fragments of EGFR, erbB2 and erbB4; made in house; host or cells: baculovirus/Sf21 insect cells (cleared lysate used)
Protocol: (§1) a) Protein Tyrosine Kinase phosphorylation Assays
(§2) This test measures the ability of a test compound to inhibit the phosphorylation of a tyrosine containing polypeptide substrate by EGFR, erbB2 and erbB4 tyrosine kinase enzyme.
(§3) Recombinant intracellular fragments of EGFR, erbB2 and erbB4 (accession numbers X00588, X03363 and L07868 respectively) were cloned and expressed in the baculovirus/Sf21 system. […]
(§4) Constitutive kinase activity of these recombinant proteins was determined by their ability to phosphorylate a synthetic peptide (made up of a random co-polymer of Glutamic Acid, Alanine and Tyrosine in the ratio of 6:3:1). […]
(§5) The immobilised phospho-peptide product of the reaction was detected by immunological methods. […] After further washing, HRP activity in each well of the plate was measured colorimetrically using 22′-Azino-di-[3-ethylbenzthiazoline sulfonate (6)]diammonium salt crystals (ABTS™ from Roche) as a substrate.
(§6) Quantification of colour development and thus enzyme activity was achieved by the measurement of absorbance at 405 nm on a Molecular Devices ThermoMax microplate reader. Kinase inhibition for a given compound was expressed as an IC50 value. […] The range of phosphorylation was calculated from the positive (vehicle plus ATP) and negative (vehicle minus ATP) control values.

erbB2 tyrosine kinase = target: T2, erbB2 tyrosine kinase (Homo sapiens, UniProt P04626); experiment: Test (a) protein tyrosine kinase phosphorylation assay, erbB2; type: biochemical; conditions: ATP at Km concentration; read-out: IC50 Test (a): Inhibition of erbB2 tyrosine kinase protein phosphorylation
T2 construct: Recombinant intracellular fragments of EGFR, erbB2 and erbB4; made in house; host or cells: baculovirus/Sf21 insect cells (cleared lysate used)
T2 sequence (P04626 676-1255 limits assumed): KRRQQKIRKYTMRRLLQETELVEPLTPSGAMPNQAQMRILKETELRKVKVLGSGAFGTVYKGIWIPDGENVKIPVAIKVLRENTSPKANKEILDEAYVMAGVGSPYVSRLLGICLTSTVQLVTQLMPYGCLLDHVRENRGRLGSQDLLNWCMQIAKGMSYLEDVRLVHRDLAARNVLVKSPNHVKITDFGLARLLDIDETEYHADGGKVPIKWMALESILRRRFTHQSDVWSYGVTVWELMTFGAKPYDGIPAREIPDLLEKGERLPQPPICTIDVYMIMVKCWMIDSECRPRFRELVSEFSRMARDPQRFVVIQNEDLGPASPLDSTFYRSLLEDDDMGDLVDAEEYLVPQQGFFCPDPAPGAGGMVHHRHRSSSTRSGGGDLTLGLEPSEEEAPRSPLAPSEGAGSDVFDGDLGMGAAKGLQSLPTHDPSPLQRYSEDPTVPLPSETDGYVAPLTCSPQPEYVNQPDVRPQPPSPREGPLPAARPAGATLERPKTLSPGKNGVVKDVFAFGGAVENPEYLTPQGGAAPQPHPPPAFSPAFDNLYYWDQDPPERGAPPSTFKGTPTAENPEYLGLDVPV
Protocol: as §1, §2, §3, §4, §5, §6

[1] = target: T3, erbB2 in a MCF7 derived cell line (Clone 24 cells) (Homo sapiens, UniProt P04626); experiment: Test (c) Clone 24 phospho-erbB2 cell assay; type: cell-based; conditions: 4 hours with compound, read-out: IC50 Test (c): Inhibition of erbB2 tyrosine kinase protein phosphorylation
T3 construct: a cell line that overexpresses full length wild type erbB2 protein; expressed in transfected cells
T3 sequence (P04626 23-1255): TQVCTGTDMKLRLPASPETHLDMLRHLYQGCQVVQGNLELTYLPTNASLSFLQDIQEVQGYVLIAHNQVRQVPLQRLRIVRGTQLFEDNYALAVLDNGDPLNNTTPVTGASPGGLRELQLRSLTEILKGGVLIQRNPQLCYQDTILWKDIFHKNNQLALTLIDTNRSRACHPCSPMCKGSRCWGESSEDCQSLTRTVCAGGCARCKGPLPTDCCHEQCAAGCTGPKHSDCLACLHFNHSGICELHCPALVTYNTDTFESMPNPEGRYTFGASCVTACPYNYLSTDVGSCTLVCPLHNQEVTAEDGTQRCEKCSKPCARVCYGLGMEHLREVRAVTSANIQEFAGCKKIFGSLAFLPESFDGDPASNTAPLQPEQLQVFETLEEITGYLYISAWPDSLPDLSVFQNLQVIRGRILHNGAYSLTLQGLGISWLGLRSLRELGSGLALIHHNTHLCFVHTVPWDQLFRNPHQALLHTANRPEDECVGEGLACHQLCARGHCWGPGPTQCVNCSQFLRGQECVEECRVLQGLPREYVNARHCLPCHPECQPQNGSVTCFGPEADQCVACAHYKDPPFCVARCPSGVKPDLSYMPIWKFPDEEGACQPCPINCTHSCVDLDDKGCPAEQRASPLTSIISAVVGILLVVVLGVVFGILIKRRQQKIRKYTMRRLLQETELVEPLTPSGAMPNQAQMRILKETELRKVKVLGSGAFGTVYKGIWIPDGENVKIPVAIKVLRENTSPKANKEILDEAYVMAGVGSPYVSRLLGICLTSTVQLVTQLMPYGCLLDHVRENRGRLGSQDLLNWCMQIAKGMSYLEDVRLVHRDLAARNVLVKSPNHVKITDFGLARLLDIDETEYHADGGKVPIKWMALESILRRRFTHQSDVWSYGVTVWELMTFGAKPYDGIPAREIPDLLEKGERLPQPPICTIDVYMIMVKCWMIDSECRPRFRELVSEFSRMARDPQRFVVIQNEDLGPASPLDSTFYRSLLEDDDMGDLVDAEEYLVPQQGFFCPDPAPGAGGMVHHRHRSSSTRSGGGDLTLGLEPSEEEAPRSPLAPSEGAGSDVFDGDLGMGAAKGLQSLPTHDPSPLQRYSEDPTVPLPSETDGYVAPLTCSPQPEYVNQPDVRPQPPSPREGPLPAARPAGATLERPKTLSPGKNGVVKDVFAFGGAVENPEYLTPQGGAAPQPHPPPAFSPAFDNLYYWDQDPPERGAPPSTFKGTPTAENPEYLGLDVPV
Protocol: c) Clone 24 Phospho-erbB2 Cell Assay
This immunofluorescence end point assay measures the ability of a test compound to inhibit the phosphorylation of erbB2 in a MCF7 (breast carcinoma) derived cell line which was generated by transfecting MCF7 cells with the full length erbB2 gene using standard methods to give a cell line that overexpresses full length wild type erbB2 protein (hereinafter ‘Clone 24’ cells).
Clone 24 cells were cultured in Growth Medium (phenol red free Dulbecco's modified Eagle's medium (DMEM) containing 10% foetal bovine serum, 2 mM glutamine and 1.2 mg/ml G418) in a 7.5% CO2 air incubator at 37° C. […] Cell density was measured using a haemocytometer and viability was calculated using Trypan Blue solution before being further diluted in Growth Medium and seeded at a density of 1×10^4 cells per well (in 100 μl) into clear bottomed 96 well plates (Packard, No. 6005182). […]
Immunostaining was performed at room temperature. […] Plates were analysed within six hours of completing the immunostaining.
The Fluorescence signal is each well was measured using an Acumen Explorer Instrument (Acumen Bioscience Ltd.), a plate reader that can be used to rapidly quantitate features of images generated by laser-scanning. […]

T1 sequence (P00533 669-1210 limits assumed): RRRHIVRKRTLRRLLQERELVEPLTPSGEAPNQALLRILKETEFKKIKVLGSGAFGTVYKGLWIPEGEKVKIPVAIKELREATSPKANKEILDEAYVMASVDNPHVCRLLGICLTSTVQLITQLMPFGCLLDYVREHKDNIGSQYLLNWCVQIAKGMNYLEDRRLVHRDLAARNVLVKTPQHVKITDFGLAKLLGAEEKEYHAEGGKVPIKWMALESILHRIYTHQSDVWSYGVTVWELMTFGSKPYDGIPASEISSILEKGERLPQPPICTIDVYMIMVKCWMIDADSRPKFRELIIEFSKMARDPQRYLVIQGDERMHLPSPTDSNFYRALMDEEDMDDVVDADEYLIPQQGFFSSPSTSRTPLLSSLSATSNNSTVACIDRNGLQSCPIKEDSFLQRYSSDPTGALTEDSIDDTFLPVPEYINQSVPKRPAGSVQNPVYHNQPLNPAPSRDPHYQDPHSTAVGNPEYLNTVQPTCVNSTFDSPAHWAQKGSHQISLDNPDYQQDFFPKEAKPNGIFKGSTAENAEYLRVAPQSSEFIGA

Row | IC50 (EGFR tyrosine kinase) | IC50 (erbB2 tyrosine kinase) | IC50 [1] | Compound
1 | 63 nM | 5 nM | 2 nM | C[C@H](COc1cccc2ncnc(Nc3ccc4c(ccn4Cc4ccccn4)c3)c12)N(C)C(=O)CO [Example 2, 2-Hydroxy-N-methyl-N-{(R)-1-methyl-2-[4-(1-pyridin-2-ylmethyl-1H-indol-5-ylamino)-quinazolin-5-yloxy]-ethyl}-acetamide]
2 | 780 nM | 71 nM | 1010 nM | C[C@H](CN(C)C(=O)CO)Oc1cccc2ncnc(Nc3ccc4c(ccn4Cc4ccccn4)c3)c12 [Example 1, 2-Hydroxy-N-methyl-N-{(2R)-2-[(4-{[1-(pyridin-2-ylmethyl)-1H-indol-5-yl]amino}quinazolin-5-yl)oxy]propyl}acetamide]
